Measurements from ChEMBL document CHEMBL6120962, “New Mitochondria-Targeted Fisetin Derivative Compromises Mitophagy and Limits Survival of Drug-Induced Senescent Breast Cancer Cells” (J Med Chem, 2024).
Active and inactive are the calls of the source. The rule behind the calls is not given here.

Tests used:
[1] = system: HCC1428; assay: Induction of alternative mitophagy in tamoxifen-induced senescent human HCC1428 cells assessed as increase in Rab9 level at 1 to 5 uM by immunostaining based imaging cytometric analysis; format: functional, cell-based; conditions: dose 1-5 µM
[2] = system: HCC1428; assay: Induction of oxidative stress in tamoxifen-induced senescent human HCC1428 cells assessed as increase in mitochondrial SOD2 level at 1 to 5 uM incubated for 24 hrs by MitoSOX red superoxide indicator based fluorescence analysis; format: functional, cell-based; conditions: dose 1-5 µM
[3] = system: MCF-10F; assay: Induction of mitochondrial dysfunction in tamoxifen-induced senescent human MCF-10F cells assessed as decrease in coupling efficiency at 5 uM incubated for 6 hrs by real-time analysis; format: functional, cell-based
[4] = system: HCC1428; assay: Induction of mitochondrial dysfunction in tamoxifen-induced senescent human HCC1428 cells assessed as decrease in ATP production at 5 uM incubated for 6 hrs by real-time analysis; format: functional, cell-based
[5] = system: MCF-10F; assay: Induction of apoptosis in tamoxifen-induced senescent human MCF-10F cells assessed as decrease in Bcl2 level at 1 to 5 uM incubated for 24 hrs by Western blot analysis; format: functional, cell-based; conditions: dose 1-5 µM
[6] = system: ZR-75-30; assay: Induction of AMPK phosphorylation in tamoxifen-induced senescent human ZR-75-30 cells incubated for 24 hrs by immunostaining based imaging cytometric analysis; format: cell-based; conditions: filed as activator
[7] = system: HCC1428; assay: Induction of apoptosis in human HCC1428 cells assessed as decrease in AKT level at 1 to 5 uM incubated for 24 hrs by Western blotting analysis; format: functional, cell-based; conditions: dose 1-5 µM
[8] = system: MCF-10F; assay: Induction of apoptosis in human MCF-10F cells assessed as assessed as phosphatidylserine externalization at 1 to 5 uM incubated for 24 hrs by Annexin V-FITC staining based flow cytometric analysis; format: functional, cell-based; conditions: dose 1-5 µM
[9] = system: HCC1428; assay: Induction of mitochondrial dysfunction in human HCC1428 cells assessed as decrease in coupling efficiency at 5 uM incubated for 6 hrs by real time analysis; format: functional, cell-based
[10] = system: HCC1500; assay: Induction of senescence in human HCC1500 cells assessed as increase in IL-8 level at 5 uM incubated for 24 hrs by immunostaining based imaging cytometric analysis; format: functional, cell-based
[11] = system: ZR-75-30; assay: Induction of apoptosis in human ZR-75-30 cells assessed as phosphatidylserine externalization at 1 to 5 uM incubated for 24 hrs by Annexin V-FITC staining based flow cytometric analysis; format: functional, cell-based; conditions: dose 1-5 µM
[12] = system: MCF-10F; assay: Induction of mitochondrial dysfunction in tamoxifen-induced senescent human MCF-10F cells assessed as decrease in ATP production at 5 uM incubated for 6 hrs by real-time analysis; format: functional, cell-based
[13] = system: HCC1428; assay: Induction of AMPK phosphorylation in tamoxifen-induced senescent human HCC1428 cells incubated for 24 hrs by immunostaining based imaging cytometric analysis; format: cell-based; conditions: filed as activator
[14] = system: MCF-10F; assay: Induction of mitochondrial dysfunction in tamoxifen-induced senescent human MCF-10F cells assessed as increase in proton leak at 5 uM incubated for 6 hrs by real-time analysis; format: functional, cell-based
[15] = system: HCC1428; assay: Upregulation of BECN1 level in tamoxifen-induced senescent human HCC1428 cells at 1 to 5 uM by immunostaining based imaging cytometric analysis; format: functional, cell-based; conditions: dose 1-5 µM
[16] = system: HCC1428; assay: Effect on Bcl-rambo protein level in tamoxifen-induced senescent human HCC1428 cells at 1 to 5 uM incubated for 24 hrs by Western blot analysis; format: functional, cell-based; conditions: dose 1-5 µM
[17] = system: HCC1500; assay: Induction of apoptosis in tamoxifen-induced senescent human HCC1500 cells assessed as phosphatidylserine externalization at 1 to 5 uM incubated for 24 hrs by Annexin V-FITC staining based flow cytometric analysis; format: functional, cell-based; conditions: dose 1-5 µM
[18] = system: MCF7; assay: Antitumor activity against ER-positive human MCF7 cells xenografted in Danio rerio embryo assessed as increase in Bax mRNA level at 1 to 5 uM administered for 48 hrs by RT-PCR analysis; format: functional, cell-based; conditions: dose 1-5 µM
[19] = system: Mitochondrial membrane; assay: Induction of mitochondrial membrane potential depolarization in tamoxifen-induced senescent human HCC1428 cells assessed as increase in depolarized dead cell level at 1 to 5 uM incubated for 24 hrs by 7-AAD staining based flow cytometric analysis; format: cell membranes; conditions: dose 1-5 µM
[20] = system: HCC1428; assay: Induction of apoptosis in tamoxifen-induced senescent human HCC1428 cells assessed as phosphatidylserine externalization at 1 to 5 uM incubated for 24 hrs by Annexin V-FITC staining based flow cytometric analysis; format: functional, cell-based; conditions: dose 1-5 µM
[21] = system: HCC1428; assay: Induction of oxidative stress in tamoxifen-induced senescent human HCC1428 cells assessed as increase in cytosolic SOD1 level at 1 to 5 uM incubated for 24 hrs by MitoSOX red superoxide indicator based fluorescence analysis; format: functional, cell-based; conditions: dose 1-5 µM
[22] = system: HCC1500; assay: Induction of apoptosis in human HCC1500 cells assessed as phosphatidylserine externalization at 1 to 5 uM incubated for 24 hrs by Annexin V-FITC staining based flow cytometric analysis; format: functional, cell-based; conditions: dose 1-5 µM
[23] = system: MCF-10F; assay: Induction of mitochondrial dysfunction in tamoxifen-induced senescent human MCF-10F cells assessed as decrease in spare respiratory capacity at 5 uM incubated for 6 hrs by real-time analysis; format: functional, cell-based
[24] = system: HCC1428; assay: Induction of ubiquitin-independent mitophagy in tamoxifen-induced senescent human HCC1428 cells assessed as increase in BNIP3 level at 1 to 5 uM by immunostaining based imaging cytometric analysis; format: functional, cell-based; conditions: dose 1-5 µM
[25] = system: ZR-75-30; assay: Induction of oxidative stress in tamoxifen-induced senescent human ZR-75-30 cells assessed as increase in mitochondrial superoxide production at 1 to 5 uM incubated for 24 hrs by MitoSOX red superoxide indicator based fluorescence analysis; format: functional, cell-based; conditions: dose 1-5 µM
[26] = system: HCC1428; assay: Induction of senescence in human HCC1428 cells assessed as […] in beta-galactosidase activity at 5 uM incubated for 24 hrs by immunostaining based imaging cytometric analysis; format: functional, cell-based
[27] = system: HCC1500; assay: Induction of oxidative stress in tamoxifen-induced senescent human HCC1500 cells assessed as increase in mitochondrial superoxide production at 1 to 5 uM incubated for 24 hrs by MitoSOX red superoxide indicator based fluorescence analysis; format: functional, cell-based; conditions: dose 1-5 µM
[28] = system: ZR-75-30; assay: Anticancer activity against ER-positive human ZR-75-30 cells assessed as effect on metabolic activity upto 10 uM incubated for 24 hrs by MTT assay; format: functional, cell-based
[29] = system: MCF-10F; assay: Induction of mitochondrial dysfunction in human MCF-10F cells assessed as decrease in spare respiratory capacity at 5 uM incubated for 6 hrs by real time analysis; format: functional, cell-based
[30] = target: Receptor-interacting serine/threonine-protein kinase 3 (Homo sapiens) (UniProt Q9Y572); assay: Induction of RIP3 phosphorylation in human HCC1428 cells at 1 to 5 uM incubated for 24 hrs by Western blot analysis; format: cell-based; conditions: dose 1-5 µM
[31] = system: HCC1428; assay: Effect on phosphorylated to unphosphorylated AKT ratio in tamoxifen-induced senescent human HCC1428 cells assessed as decrease in phosphorylated AKT level at 1 to 5 uM incubated for 24 hrs by Western blotting analysis; format: functional, cell-based; conditions: dose 1-5 µM
[32] = system: HCC1428; assay: Induction of autophagosome formation in tamoxifen-induced senescent human HCC1428 cells assessed as increase in LC3B level at 1 to 5 uM by immunostaining based imaging cytometric analysis; format: functional, cell-based; conditions: dose 1-5 µM
[33] = system: MCF-10F; assay: Effect on Bcl-rambo protein level in tamoxifen-induced senescent human MCF-10F cells at 1 to 5 uM incubated for 24 hrs by Western blot analysis; format: functional, cell-based; conditions: dose 1-5 µM
[34] = system: Mitochondrial membrane; assay: Induction of mitochondrial membrane potential depolarization in human HCC1428 cells at 1 uM incubated for 24 hrs by 7-AAD staining based flow cytometric analysis; format: cell membranes
[35] = system: HCC1428; assay: Induction of mitochondrial dysfunction in human HCC1428 cells assessed as decrease in ATP production at 5 uM incubated for 6 hrs by real time analysis; format: functional, cell-based

Sequence of Receptor-interacting serine/threonine-protein kinase 3 (Homo sapiens) (Q9Y572 whole entry, looked up): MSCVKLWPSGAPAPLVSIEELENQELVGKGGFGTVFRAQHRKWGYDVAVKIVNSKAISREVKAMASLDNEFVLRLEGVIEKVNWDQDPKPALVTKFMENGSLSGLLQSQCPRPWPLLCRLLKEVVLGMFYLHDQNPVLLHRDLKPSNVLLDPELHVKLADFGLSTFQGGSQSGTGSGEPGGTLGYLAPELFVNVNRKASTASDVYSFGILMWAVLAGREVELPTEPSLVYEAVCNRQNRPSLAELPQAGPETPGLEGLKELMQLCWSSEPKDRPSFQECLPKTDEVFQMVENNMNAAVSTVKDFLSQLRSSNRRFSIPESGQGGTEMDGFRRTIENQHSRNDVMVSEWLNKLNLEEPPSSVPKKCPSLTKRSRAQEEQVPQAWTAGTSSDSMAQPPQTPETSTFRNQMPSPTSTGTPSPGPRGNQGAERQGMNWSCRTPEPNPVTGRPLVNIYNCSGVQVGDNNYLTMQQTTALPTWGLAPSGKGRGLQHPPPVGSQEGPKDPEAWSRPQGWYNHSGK

For CC(=O)Oc1ccc2c(=O)c(OCCCC[P+](c3ccccc3)(c3ccccc3)c3ccccc3)c(-c3ccc4c(c3)OC(c3ccccc3)(c3ccccc3)O4)oc2c1.[I-], the Activity [1] was “inactive”, the Activity [2] was “Active” and the Activity [3] was “inactive”. The Activity [4] was “Active”, the Activity [5] was “inactive” and the Activity [6] was “Active”. For the same molecule, the Activity [7] was “Active”, the Activity [8] was “inactive” and the Activity [9] was “Active”. For the same molecule, the Activity [10] was “inactive”, the Activity [11] was “Active” and the Activity [12] was “inactive”. For the same molecule, the Activity [13] was “Active”, the Activity [14] was “inactive” and the Activity [15] was “inactive”. For the same molecule, the Activity [16] was “inactive”, the Activity [17] was “Active” and the Activity [18] was “Active”. For the same molecule, the Activity [19] was “Active”, the Activity [20] was “Active” and the Activity [21] was “Active”. The Activity [22] was “Active”, the Activity [23] was “inactive” and the Activity [24] was “inactive”. The Activity [25] was “Active”, the Activity [26] was “Active; Most Pronounced Effect Observed” and the Activity [27] was “Active”. The Activity [28] was “Active”, the Activity [29] was “inactive” and the Activity [30] was “inactive”. For the same molecule, the Activity [31] was “inactive”, the Activity [32] was “inactive” and the Activity [33] was “inactive”. For the same molecule, the Activity [34] was “Active” and the Activity [35] was “Active”.
